PubChem BioAssay (NCI)
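Tested at 5 concentrations; 48 h exposure; 96-well plates; endpoints linearly interpolated, else capped at highest concentration. TGI marks complete inhibition of growth.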

Tests used:
Test in all cases: inhibition of tumour cell growth, NCI panel, 48 h
LOX IMVI melanoma = tested on: LOX IMVI melanoma
HOP-62 NSCLC = tested on: HOP-62 NSCLC
SF-295 CNS = tested on: SF-295 CNS
TK-10 renal = tested on: TK-10 renal
UACC-62 melanoma = tested on: UACC-62 melanoma
OVCAR-4 ovarian = tested on: OVCAR-4 ovarian
HCC-2998 colon = tested on: HCC-2998 colon
SF-268 CNS = tested on: SF-268 CNS
BT-549 breast = tested on: BT-549 breast
SN12C renal = tested on: SN12C renal
MDA-MB-231 breast = tested on: MDA-MB-231 breast
NCI/ADR-RES ovarian = tested on: NCI/ADR-RES ovarian
HCT-15 colon = tested on: HCT-15 colon
MCF7 breast = tested on: MCF7 breast
A498 renal = tested on: A498 renal

| Structure (SMILES) | TGI (LOX IMVI melanoma) [µM] | TGI (HOP-62 NSCLC) [µM] | TGI (SF-295 CNS) [µM] | TGI (TK-10 renal) [µM] | TGI (UACC-62 melanoma) [µM] | TGI (OVCAR-4 ovarian) [µM] | TGI (HCC-2998 colon) [µM] | TGI (SF-268 CNS) [µM] | TGI (BT-549 breast) [µM] | TGI (SN12C renal) [µM] | TGI (MDA-MB-231 breast) [µM] | TGI (NCI/ADR-RES ovarian) [µM] | TGI (HCT-15 colon) [µM] | TGI (MCF7 breast) [µM] | TGI (A498 renal) [µM] |
| --- | --- | --- | --- | --- | --- | --- | --- | --- | --- | --- | --- | --- | --- | --- | --- |
| O=C(CCN1CCCC1)c1ccc(Oc2ccc(F)cc2)cc1 | > 100 | > 100 | > 100 | > 100 | > 100 | > 100 | > 100 | > 100 | > 100 | > 100 | > 100 | > 100 | > 100 | 32.3 | – |
| O=Cc1ccc(-c2ccc(S(=O)(=O)O)cc2)o1 | > 100 | – | > 100 | > 100 | > 100 | – | > 100 | > 100 | > 100 | > 100 | > 100 | > 100 | > 100 | > 100 | > 100 |
| COC(=O)[C@H](C)N(C)C(=O)[C@H](C)N1[C@@H](c2ccccc2)COC1(C)C | > 100 | > 100 | > 100 | > 100 | > 100 | > 100 | – | > 100 | > 100 | – | > 100 | > 100 | > 100 | > 100 | > 100 |
| CC(=O)c1cccc(Nc2nc3ccccc3c3[nH]c4ccccc4c23)c1 | – | 42 | 15.9 | 37 | 5.71 | – | – | 17.3 | > 100 | > 100 | 51.6 | > 100 | > 100 | 4.22 | – |
| N[C@H]1CCN(c2c(F)cc3c(=O)c(C(=O)O)cn4c3c2Oc2c-4ccc3c2ccc2ccccc23)C1 | 22.9 | > 100 | > 100 | – | > 100 | > 33.2 | – | – | > 69.3 | > 100 | > 100 | > 100 | > 51.3 | > 100 | > 100 |
| COc1ccc(NC(/C(C(=O)C(=O)/C=C(\O)c2ccccc2)=C(\O)c2ccccc2)c2ccc(OC)cc2)cc1 (configuration not stated) | – | > 100 | > 100 | > 100 | > 100 | > 100 | 62.3 | > 100 | > 100 | > 100 | > 100 | > 100 | > 100 | > 100 | > 100 |
| Cc1nn(C(=O)c2ccc(Cl)cc2)c2c1C(c1ccc(Cl)cc1)SC(N)=N2 (configuration not stated) | > 10 | > 10 | > 10 | > 10 | > 10 | > 10 | > 10 | > 10 | > 10 | > 10 | > 10 | > 10 | > 10 | > 10 | – |
| Nn1c(CCCCCCCCc2n[nH]c(=S)n2N)n[nH]c1=S | – | > 100 | > 100 | – | > 100 | > 100 | > 100 | > 100 | > 100 | > 100 | > 100 | > 100 | > 100 | > 100 | > 100 |
| CCOC(=O)c1ccc(N(CCOS(=O)(=O)c2ccc(C)cc2)CCOS(=O)(=O)c2ccc(C)cc2)cc1 | > 100 | – | > 100 | > 100 | > 100 | > 100 | > 100 | > 100 | > 100 | – | 86.8 | > 100 | > 100 | > 100 | > 100 |
